Activity calls are given as the source filed them.
What was measured:
[1] = ATP-based viability loss in HEK293T cells – cell-based, CellTiter-Glo luminescence, cherry-picked samples, set 4, cytotoxicity control, dose response (AID 743441); assay type: functional; conditions: HEK293
[2] = NIH-3T3 fibroblast cytotoxicity, dose response, cytotoxicity control, cell-based, fluorescence, Alamar Blue, secondary assay (AID 2327); assay type: functional;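 further: NIH-3T3 mouse fibroblasts cultured with fluconazole at 8 µg/mL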
[3] = luciferase reporter signal suppression in cells – H4 neuroglioma cells, luminescence, dose response (AID 1990); assay type: functional, cell-based
[4] = Luminescence Cell-Based Dose Response HTS to Identify Inhibitors of 5'UTR Stem-Loop Driven Prion Protein mRNA Translation in H4 Neuroglioblastoma Cells. [Related pubchem assays: 1827 (Project Summary), 1813 (Primary HTS)]; assay type: functional
[5] = alpha-synuclein stem-loop luciferase translation blockers – H4 neuroglioma cells, luminescence, confirmation (AID 1988); assay type: functional, cell-based
[6] = fluconazole-exposed Candida albicans growth modulators – fluorescence, retest, confirmation (AID 2467); assay type: functional, cell-based
Exodeoxyribonuclease V = target: T1, Exodeoxyribonuclease V (Escherichia coli (strain K12), UniProt P04993+P07648+P08394); test: RecBCD inhibition via phage-restricted bacterial growth – absorbance, V66 E. coli, mutant T4 phage, counter-screen for AddAB inhibitor project, dose response (AID 492957); assay type: functional, cell-based, Escherichia coli str. K-12 substr. MG1655
T1 sequence (P04993 whole entry): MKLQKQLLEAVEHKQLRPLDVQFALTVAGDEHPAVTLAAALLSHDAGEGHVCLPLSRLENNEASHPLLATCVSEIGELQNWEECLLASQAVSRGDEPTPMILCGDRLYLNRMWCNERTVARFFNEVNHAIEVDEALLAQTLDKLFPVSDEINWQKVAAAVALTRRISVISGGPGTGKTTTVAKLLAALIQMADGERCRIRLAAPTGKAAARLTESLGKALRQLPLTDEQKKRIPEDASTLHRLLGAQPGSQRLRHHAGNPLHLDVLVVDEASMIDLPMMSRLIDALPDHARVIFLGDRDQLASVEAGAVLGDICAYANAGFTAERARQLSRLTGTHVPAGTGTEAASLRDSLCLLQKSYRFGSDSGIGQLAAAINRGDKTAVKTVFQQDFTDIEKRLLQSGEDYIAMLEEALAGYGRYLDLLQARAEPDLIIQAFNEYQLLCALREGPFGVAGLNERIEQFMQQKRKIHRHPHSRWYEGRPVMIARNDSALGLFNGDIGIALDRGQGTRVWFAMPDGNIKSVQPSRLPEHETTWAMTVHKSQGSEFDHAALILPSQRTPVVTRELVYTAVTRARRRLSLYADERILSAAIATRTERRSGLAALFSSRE
T1 sequence (P07648 whole entry): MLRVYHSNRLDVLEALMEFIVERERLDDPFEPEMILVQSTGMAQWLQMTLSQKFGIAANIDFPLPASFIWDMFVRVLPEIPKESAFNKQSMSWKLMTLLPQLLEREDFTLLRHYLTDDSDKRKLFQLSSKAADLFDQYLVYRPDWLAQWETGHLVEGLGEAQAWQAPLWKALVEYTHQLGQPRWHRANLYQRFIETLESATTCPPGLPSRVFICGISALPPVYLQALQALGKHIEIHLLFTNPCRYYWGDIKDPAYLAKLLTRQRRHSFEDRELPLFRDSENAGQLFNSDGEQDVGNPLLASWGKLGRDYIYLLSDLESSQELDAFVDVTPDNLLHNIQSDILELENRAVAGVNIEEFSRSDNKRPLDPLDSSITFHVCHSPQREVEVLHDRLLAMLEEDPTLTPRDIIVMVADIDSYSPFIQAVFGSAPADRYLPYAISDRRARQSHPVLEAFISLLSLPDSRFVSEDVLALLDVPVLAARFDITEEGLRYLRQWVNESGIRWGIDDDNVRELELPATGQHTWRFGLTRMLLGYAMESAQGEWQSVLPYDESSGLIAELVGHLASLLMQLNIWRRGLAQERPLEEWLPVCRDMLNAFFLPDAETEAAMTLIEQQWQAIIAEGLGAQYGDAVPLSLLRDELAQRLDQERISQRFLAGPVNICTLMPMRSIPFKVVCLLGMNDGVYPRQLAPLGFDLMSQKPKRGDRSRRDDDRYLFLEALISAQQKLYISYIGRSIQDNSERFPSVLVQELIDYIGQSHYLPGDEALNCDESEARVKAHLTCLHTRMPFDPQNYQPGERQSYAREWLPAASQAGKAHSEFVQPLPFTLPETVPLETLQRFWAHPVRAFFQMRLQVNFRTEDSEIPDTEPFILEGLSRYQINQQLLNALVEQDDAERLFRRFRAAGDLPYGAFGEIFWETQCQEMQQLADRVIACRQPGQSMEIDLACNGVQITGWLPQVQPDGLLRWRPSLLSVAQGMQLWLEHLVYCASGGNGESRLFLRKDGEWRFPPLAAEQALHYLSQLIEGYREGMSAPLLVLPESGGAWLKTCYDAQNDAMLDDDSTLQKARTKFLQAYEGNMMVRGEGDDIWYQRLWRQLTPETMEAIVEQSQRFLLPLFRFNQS
T1 sequence (P08394 whole entry): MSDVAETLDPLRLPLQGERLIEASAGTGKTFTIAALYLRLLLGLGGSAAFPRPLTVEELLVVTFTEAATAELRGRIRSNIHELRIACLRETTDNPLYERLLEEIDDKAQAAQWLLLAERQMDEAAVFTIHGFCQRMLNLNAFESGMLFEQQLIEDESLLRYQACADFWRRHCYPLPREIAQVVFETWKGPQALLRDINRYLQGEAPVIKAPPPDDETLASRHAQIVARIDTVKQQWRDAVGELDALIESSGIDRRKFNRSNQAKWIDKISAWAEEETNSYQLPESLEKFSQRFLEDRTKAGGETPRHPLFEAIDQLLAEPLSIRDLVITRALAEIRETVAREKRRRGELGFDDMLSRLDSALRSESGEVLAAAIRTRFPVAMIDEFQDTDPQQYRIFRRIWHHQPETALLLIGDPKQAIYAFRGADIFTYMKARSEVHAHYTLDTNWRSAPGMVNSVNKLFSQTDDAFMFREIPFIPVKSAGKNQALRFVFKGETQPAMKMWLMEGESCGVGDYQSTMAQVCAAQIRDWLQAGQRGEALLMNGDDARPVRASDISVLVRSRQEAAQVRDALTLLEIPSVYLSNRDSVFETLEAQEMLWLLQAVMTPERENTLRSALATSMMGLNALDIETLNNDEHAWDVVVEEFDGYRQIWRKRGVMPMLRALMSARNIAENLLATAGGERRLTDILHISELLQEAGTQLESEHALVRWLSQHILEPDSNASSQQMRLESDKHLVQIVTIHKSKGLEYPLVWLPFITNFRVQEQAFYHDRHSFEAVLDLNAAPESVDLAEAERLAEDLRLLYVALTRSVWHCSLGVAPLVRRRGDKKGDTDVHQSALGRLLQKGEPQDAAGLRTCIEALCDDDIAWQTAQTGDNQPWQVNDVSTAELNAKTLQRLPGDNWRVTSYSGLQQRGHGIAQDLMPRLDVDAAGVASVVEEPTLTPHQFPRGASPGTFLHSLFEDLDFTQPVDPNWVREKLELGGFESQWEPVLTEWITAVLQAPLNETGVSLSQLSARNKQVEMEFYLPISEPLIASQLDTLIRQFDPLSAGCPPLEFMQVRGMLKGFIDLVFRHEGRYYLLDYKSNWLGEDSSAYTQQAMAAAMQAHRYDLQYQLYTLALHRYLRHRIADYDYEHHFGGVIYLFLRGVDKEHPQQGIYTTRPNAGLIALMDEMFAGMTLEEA

[7] = Luminescence Cell-Based Dose Retest to Confirm Inhibitors of Cancer Stem Cells. [Related pubchem assays (depositor defined):AID2717, AID2721]; assay type: functional; conditions: Homo sapiens
[8] = Counterscreen for AddAB inhibitors: absorbance-based bacterial cell-based high throughput dose response assay for inhibitors of bacterial viability. [Related pubchem assays (depositor defined):AID435030, AID449728, AID449731, AID488942, AID488955, AID488956]; assay type: functional
INS1 = test: INS-1E survival protection against cytokine death – cell-based, luminescence, retest, dose response (AID 449756); assay type: functional; conditions: Rattus norvegicus;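 further: cell death triggered by IL-1 beta plus TNF-alpha plus IFN-gamma mixture; protective hits raise ATP signal compared with cytokine alone wells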
[9] = HGIII-sPLA2 enzyme inhibition potency – biochemical, QFRET, IC50, dose response (AID 743457);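 further: green fluorescence rise as the enzyme cleaves BODIPY PC-A2 in liposomes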
[10] = TNFa-induced NF-kB reporter signal decrease – HEK293 LMP1 reporter cells, dry powder, set 2, selectivity assay for EBV LMP1 NF-kB inhibitor project, dose response (AID 624369); assay type: functional
[11] = inhibitors of EBV LMP1 NF-kappaB signaling – cell-based, luciferase reporter, luminescence, dry powder, set 2, dose response (AID 624376); assay type: functional
[12] = HEK293T viability loss – cell-based, ATP luminescence, dry powder, Set6, cytotoxicity control, dose response (AID 743142); assay type: functional; conditions: HEK293
[13] = MITF Orthogonal Assay: SK-MEL-5 CTG Assay Measured in Cell-Based System Using Plate Reader - 2084-02_Inhibitor_Dose_DryPowder_Activity_Set7.; assay type: functional
[14] = MITF: Counter assay: A375 proliferation Measured in Cell-Based System Using Plate Reader - 2084-03_Inhibitor_Dose_DryPowder_Activity_Set8.; assay type: functional; conditions: A-375
[15] = target: DNA repair protein RAD52 homolog (Homo sapiens, UniProt P43351); assay type: functional, biochemical
Nonstructural protein 1 = Nonstructural protein 1 (Influenza A virus, UniProt Q194T2); assay type: functional, Influenza A virus (A/California/07/2009(H1N1))
[16] = target: Matrix metalloproteinase-14 (Homo sapiens, UniProt P50281); test: Dose Response confirmation of uHTS hits for a small molecule inhibitors of MT1-MMP activation in a fluorescence assay set 1.; assay type: functional
[17] = reduction of Shn3 3'UTR-driven luciferase in osteoblasts – cell-based, Clone20 osteoblasts, firefly luciferase, cherry-picked, dose response (AID 624132); assay type: functional;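 further: firefly luciferase luminescence from reporter carrying the Shn3 3'UTR in osteoblasts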
[18] = loss of viability in HepG2 cells – cell-based, CellTiter-Glo, cherry-picked, cytotoxicity control for Shn3 inhibitor project, dose response (AID 624134); assay type: functional
[19] = non-specific 3'UTR reporter inhibition in Clone20-Shn3RL – cell-based, Renilla luciferase, cherry-picked, counter-screen for Shn3 inhibitor project, dose response (AID 624133); assay type: functional
Protein Wnt-3a = Protein Wnt-3a (Mus musculus, UniProt P27467); test: antagonism of Wnt3a pathway luciferase reporter – Wnt-LIGHT cells, luminescence, selectivity assay for Gli-SUFU antagonist project, dose response (AID 651570); assay type: functional; conditions: read-out: IC50_Mean;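 further: Wnt-LIGHT reporter cells stimulated with conditioned medium from Wnt3a-producing cells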
[20] = Shn3 3'UTR reporter signal decrease – cell-based, Clone20 osteoblasts, firefly luciferase, cherry-pick, set 2, Schnurri-3 inhibitor project, dose response (AID 720490); assay type: functional;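 further: actives lower the luminescence signal as inhibitors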
[21] = EF1alpha-driven Renilla reporter with control 3'UTR suppression – Clone20-Shn3RL cells, dual-Glo, cherry-pick, set 2, counter-screen for Shn3 3'UTR targeting project, dose response (AID 720724); assay type: functional, cell-based; conditions: Dual-Go Shn3RL
Cryptococcus neoformans = test: PubChem AID 686997; assay type: functional, organism-based
Beta-lactamase [22] = target: Beta-lactamase (Salmonella choleraesuis (strain SC-B67), UniProt Q5J463); test: Epi-absorbance-based counterscreen for selective VIM-2 inhibitors: dose response biochemical high throughput screening assay to identify inhibitors of TEM-1 serine-beta-lactamase.
Beta-lactamase [23] = target: T2, Beta-lactamase (Pseudomonas aeruginosa, UniProt Q79MP6); test: inhibition of IMP-1 beta-lactamase activity – biochemical, epi-absorbance, selectivity assay for VIM-2 inhibitor project, dose response (AID 1920)
Beta-lactamase [24] = target: T2, Beta-lactamase; test: […] counterscreen for selective VIM-2 inhibitors: dose response biochemical high throughput screening assay to identify inhibitors of IMP-1 metallo-beta-lactamase.

T2 sequence (Q79MP6 whole entry): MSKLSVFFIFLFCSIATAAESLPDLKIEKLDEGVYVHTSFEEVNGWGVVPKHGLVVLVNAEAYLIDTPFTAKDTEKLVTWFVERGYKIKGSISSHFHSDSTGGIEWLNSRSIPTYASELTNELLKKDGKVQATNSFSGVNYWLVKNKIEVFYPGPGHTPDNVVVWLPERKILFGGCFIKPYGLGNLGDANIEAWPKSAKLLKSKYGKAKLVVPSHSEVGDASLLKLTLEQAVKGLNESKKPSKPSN
Sequence of Protein Wnt-3a (P27467 whole entry): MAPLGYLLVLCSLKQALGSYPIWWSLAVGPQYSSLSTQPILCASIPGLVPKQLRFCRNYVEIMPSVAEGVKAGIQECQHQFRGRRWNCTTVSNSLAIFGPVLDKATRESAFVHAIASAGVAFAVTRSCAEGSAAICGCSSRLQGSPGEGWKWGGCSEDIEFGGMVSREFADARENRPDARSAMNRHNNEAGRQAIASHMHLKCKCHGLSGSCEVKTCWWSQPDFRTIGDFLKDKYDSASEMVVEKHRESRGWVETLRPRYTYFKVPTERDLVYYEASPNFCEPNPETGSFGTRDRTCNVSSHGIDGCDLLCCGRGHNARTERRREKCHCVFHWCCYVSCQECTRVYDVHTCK
Sequence of DNA repair protein RAD52 homolog (P43351 whole entry): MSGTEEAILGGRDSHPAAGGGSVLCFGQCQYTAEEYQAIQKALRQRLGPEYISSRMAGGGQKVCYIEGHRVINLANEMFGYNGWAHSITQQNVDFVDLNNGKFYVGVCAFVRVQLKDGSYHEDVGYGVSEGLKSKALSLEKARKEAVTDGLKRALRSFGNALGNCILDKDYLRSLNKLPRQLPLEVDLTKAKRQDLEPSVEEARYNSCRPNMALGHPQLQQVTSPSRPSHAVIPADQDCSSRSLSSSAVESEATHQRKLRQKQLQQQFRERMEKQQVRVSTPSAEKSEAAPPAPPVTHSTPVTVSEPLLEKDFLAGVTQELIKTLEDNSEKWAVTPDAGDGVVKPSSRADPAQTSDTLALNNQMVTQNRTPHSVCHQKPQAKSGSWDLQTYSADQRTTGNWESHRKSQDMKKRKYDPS
Sequence of Beta-lactamase (Salmonella choleraesuis (strain SC-B67), UniProt Q5J463) (Q5J463 whole entry): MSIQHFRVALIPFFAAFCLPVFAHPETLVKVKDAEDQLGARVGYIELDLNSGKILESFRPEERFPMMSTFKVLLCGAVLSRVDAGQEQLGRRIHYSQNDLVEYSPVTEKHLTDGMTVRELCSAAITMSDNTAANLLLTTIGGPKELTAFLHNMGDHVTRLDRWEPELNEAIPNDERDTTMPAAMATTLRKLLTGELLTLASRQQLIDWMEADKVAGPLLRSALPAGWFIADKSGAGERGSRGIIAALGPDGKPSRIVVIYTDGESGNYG
Sequence of Nonstructural protein 1 (Q194T2 whole entry): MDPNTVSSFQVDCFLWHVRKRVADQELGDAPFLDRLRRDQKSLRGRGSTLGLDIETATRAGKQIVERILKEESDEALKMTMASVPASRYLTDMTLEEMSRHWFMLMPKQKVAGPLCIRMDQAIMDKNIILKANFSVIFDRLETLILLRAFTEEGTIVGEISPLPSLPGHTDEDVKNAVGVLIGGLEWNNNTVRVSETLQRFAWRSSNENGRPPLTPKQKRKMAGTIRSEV

Cc1cc(C)c(OCCNC(=O)c2ccccc2Sc2ccccc2C#N)c(C)c1
AC50 [1]: > 52 µM (inactive)

Cc1onc(-c2c(Cl)cccc2Cl)c1C(=O)NN=C(N)COc1ccc(Cl)cc1
EC50 [2]: > 150 µM (inactive)
EC50 [3]: > 120 µM (not active)
EC50 [4]: 12 µM (active)
EC50 [5]: > 120 µM (not active)
EC50 [6]: 3.09 µM (active)
IC50 (Exodeoxyribonuclease V): > 119 µM (inactive)
AC50 [7]: 3.07 µM (active)
IC50 [8]: > 119 µM (inactive)
AC50 (INS1): 3.71 µM (active)
IC50 [9]: > 122 µM (inactive)

C/C=C/c1cccc(-c2nc(C(=O)Nc3nccs3)cc3c2[C@@H](CCO)N(C(=O)NC(C)C)C3)c1
AbsAC35 [10]: 58.58 µM
AbsAC35 [11]: 118.9 µM

O=C(Cc1ccc(Cl)cc1)NCCC(=O)N[C@@H]1CCCc2ccccc21
AC50 [12]: 5.41 µM (active)

Cc1ccc(NC2=CC(=O)c3ccccc3C2=O)cc1C
AC50 [13]: 0.904 µM (active)
AC50 [14]: > 70 µM (inactive)

Cc1cc(N2CCNC[C@@H]2C)ccc1N1CC[C@@H](O)C1
AC50 [15]: 4.37 µM (active)

CCCN1C(=O)/C(=C2/C=Cc3ccccc3N2CC)SC1=S
IC50 (Nonstructural protein 1): 5.77 µM (active)
IC50 [16]: 29.7 µM (inactive)

CC(Sc1nc2ccccc2c(=O)n1C)C(=O)N(C)C1CCCCC1 (centres undefined)
AC50 [17]: 2.27 µM (active)
AC50 [18]: 38.2 µM (active)
AC50 [19]: 13.7 µM (active)
IC50 (Protein Wnt-3a): 1.92 µM (active)
AC50 [20]: 2.03 µM (active)
AC50 [21]: 49.9 µM (active)

Cc1cc(Cl)ccc1N=C(S)NCc1ccc(F)cc1
AC50 (Cryptococcus neoformans): > 70 µM (inactive)

S=c1[nH]nc(-c2cccs2)n1Cc1ccccc1
IC50 (Beta-lactamase [22]): > 59.6 µM (inactive)
IC50 (Beta-lactamase [23]): > 59.6 µM (inactive)
IC50 (Beta-lactamase [24]): > 59.6 µM (inactive)
